Measured values from US7572819B2, “Compounds which potentiate glutamate receptor and uses thereof in medicine” (Glaxo Group Limited, priority 2004, dated 2009).
pEC50: −log10 of the molar value.

Target: T1, human GluR2 flip (unedited) AMPA receptor subunit (Homo sapiens, UniProt P42262)
T1 construct: expressed in transfected cells; host or cells: HEK 293 cells, stably expressing or transiently transfected
Assay: Calcium influx fluorescence assay (FLUO4, FLIPR)
Format: cell-based
Details: HEK 293 cells expressing human GluR2 flip (unedited); 100 μM glutamate; peak fluorescence
Procedure: The ability of the compounds of the invention to potentiate glutamate receptor-mediated response were determined a) by using fluorescent calcium-indicator dyes such as FLUO4 and additionally for some example compounds, b) by measuring glutamate-evoked current recorded from human GluR2 flip unedited HEK293 cells. • a) Calcium Influx Fluorescence Assay
384 well plates were prepared containing confluent monolayer of HEK 293 cells either stably expressing or transiently transfected with human GluR2 flip (unedited) AMPA receptor subunit. These cells form functional homotetrameric AMPA receptors. […]
The cell plate was then transferred into a fluorescence imaging plate based reader [such as the FLIPR384 (Molecular Devices)]. A baseline fluorescence reading was taken over a 10 to 240 second period, and then 10 μL from each plate containing a compound of the invention made up in standard buffer solution (in a concentration range from 100 μM to 10 pM) was added (to give a final concentration in the range 30 μM to 3 pM). The fluorescence was read over 5 minute period. […] The fluoresecence was then read over a 4 minute period. The activities of the compounds of the invention and reference compounds were determined by measuring peak fluorescence after the last addition. […]

T1 sequence (P42262 25-883 isoform P42262-2 limits assumed): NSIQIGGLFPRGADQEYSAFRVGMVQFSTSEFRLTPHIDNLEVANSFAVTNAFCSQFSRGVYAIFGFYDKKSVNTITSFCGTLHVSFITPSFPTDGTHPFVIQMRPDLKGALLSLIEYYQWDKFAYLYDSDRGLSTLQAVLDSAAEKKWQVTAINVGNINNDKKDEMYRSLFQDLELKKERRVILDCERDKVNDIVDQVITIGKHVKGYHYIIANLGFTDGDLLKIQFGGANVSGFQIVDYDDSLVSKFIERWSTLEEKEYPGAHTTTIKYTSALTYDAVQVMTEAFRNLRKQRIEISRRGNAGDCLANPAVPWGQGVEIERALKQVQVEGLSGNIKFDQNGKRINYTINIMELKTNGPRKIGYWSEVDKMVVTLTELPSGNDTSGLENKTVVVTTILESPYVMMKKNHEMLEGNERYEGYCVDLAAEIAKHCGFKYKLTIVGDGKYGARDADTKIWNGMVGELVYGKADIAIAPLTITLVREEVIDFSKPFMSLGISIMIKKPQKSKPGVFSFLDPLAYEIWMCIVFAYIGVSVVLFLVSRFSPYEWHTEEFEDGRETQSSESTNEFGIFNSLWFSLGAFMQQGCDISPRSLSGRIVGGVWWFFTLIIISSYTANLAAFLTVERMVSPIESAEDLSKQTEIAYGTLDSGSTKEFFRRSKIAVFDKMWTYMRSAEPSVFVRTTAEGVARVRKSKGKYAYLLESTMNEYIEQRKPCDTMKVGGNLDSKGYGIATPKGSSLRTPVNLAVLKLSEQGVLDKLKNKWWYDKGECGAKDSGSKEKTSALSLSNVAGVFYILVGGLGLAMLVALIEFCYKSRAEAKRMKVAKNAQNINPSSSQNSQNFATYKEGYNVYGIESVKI

## CC(C)S(=O)(=O)NC1Cc2ccc(-c3ccsc3)cc2C1 (stereo not shown) [Example 4, N-[5-(3-thienyl)-2,3-dihydro-1H-inden-2-yl]-2-propanesulfonamide]
  pEC50: 5.00
